Measured values as given in ChEMBL document CHEMBL1201862, “PubChem BioAssay data set” (2004).
The source made the active and inactive calls.

How the values were obtained:
[1] = viability inhibitors of stage V gametocytes – luminescence, dose response (AID 1117278); format: functional, cell-based;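 note: gametocytes exposed to compound for 24 hours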
[2] = viability loss in human Jurkat cells – cell-based, luminescence, cytotoxicity control for P. falciparum gametocyte viability project, dose response (AID 1117277); format: functional;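 note: potency reflects loss of cellular ATP meaning fewer viable cells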
[3] = molecular target: NAD-dependent protein deacylase sirtuin-5, mitochondrial (Homo sapiens, UniProt Q9NXA8); test: sirtuin-5 deacylation blockers, concentration series – biochemical, fluorescence imaging, cherry-pick, set 5, dose response (AID 720591);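 note: desuccinylation of succinyl peptide AMC substrate read as fluorescence after trypsin release; potency of inhibitors that lower fluorescence and may act on trypsin instead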
[4] = molecular target: T1, Carboxy-terminal domain RNA polymerase II polypeptide A small phosphatase 1 (Homo sapiens, UniProt Q9GZU7); test: CTDSP1 inhibitors, concentration-response, biochemical, absorbance readout, ultra-high-throughput screen actives (AID 540297); format: functional
T1 sequence (Q9GZU7 whole entry): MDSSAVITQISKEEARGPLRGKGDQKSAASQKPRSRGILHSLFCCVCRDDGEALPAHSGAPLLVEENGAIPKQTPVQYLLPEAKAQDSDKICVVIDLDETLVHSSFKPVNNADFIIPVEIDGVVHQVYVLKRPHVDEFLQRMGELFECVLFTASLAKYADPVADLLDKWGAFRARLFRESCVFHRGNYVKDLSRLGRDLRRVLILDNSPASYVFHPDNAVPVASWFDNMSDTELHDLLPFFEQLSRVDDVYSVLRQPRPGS

[5] = molecular target: T2, Low molecular weight phosphotyrosine protein phosphatase (Homo sapiens, UniProt P24666); format: functional; details: read-out: IC50_Mean;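 note: Dose-response confirmation assay measuring inhibition of LMPTP enzyme activity by fluorescence intensity read-out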
T2 sequence (P24666 whole entry): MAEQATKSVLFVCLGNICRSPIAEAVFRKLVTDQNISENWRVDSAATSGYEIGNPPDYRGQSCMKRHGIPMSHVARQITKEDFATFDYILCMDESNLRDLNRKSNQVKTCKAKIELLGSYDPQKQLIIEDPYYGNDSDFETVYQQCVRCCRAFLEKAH

[6] = molecular target: Diphosphomevalonate decarboxylase (Streptococcus pneumoniae serotype 2 (strain D39 / NCTC 7466), UniProt Q9FD53); test: diphosphomevalonate decarboxylase inhibitor confirmation – biochemical, cuvette format, coupled NADH fluorescence (AID 1028); format: functional
[7] = molecular target: T3, Mannose-6-phosphate isomerase (Homo sapiens, UniProt P34949); test: MPI inhibition at elevated mannose 6-phosphate – biochemical, fluorescence intensity, high mannose 6-phosphate, primary screen (AID 1220)
T3 sequence (P34949 whole entry): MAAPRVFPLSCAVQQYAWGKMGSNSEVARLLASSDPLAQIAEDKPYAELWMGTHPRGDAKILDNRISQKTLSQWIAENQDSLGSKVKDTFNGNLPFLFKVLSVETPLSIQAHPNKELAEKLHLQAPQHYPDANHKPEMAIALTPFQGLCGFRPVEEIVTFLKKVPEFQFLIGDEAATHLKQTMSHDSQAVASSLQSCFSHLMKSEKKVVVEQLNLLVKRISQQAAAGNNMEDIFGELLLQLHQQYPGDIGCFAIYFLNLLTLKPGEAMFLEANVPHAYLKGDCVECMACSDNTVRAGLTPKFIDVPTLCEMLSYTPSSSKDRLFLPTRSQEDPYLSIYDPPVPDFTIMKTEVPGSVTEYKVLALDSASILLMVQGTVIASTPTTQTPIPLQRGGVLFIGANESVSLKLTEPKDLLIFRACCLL

[8] = molecular target: E3 ubiquitin-protein ligase Mdm2 (Homo sapiens, UniProt Q00987); test: MDM2-luc reporter signal enhancers, multi-concentration potency testing, MDM2 ubiquitin-protein ligase inhibitor program, whole-cell format, luminescence detection, 384-well microplate (AID 1394); format: functional;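 note: MDM2 E3 inhibitors raise luminescence so EC50 is for signal enhancement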
Vero = test: mammalian cell viability reduction – secondary assay, cytotoxicity control for West Nile virus antiviral project, dose response (AID 1650); format: functional; details: Chlorocebus sabaeus
[9] = Luminescence-based cell-based high throughput dose response assay to identify activators of the DAF-12 from the parasite S. stercoralis (ssDAF-12).; format: functional
[10] = molecular target: T4, Oxysterols receptor LXR-beta (Homo sapiens, UniProt P55055); test: LXR agonists, Gal4 luciferase reporter, dose response, counter-screen for ssDAF-12 agonist project, cell-based, luminescence, HEK293, S. stercoralis campaign (AID 720737); format: functional; details: read-out: IC50 (the source's name)
T4 sequence (P55055 whole entry): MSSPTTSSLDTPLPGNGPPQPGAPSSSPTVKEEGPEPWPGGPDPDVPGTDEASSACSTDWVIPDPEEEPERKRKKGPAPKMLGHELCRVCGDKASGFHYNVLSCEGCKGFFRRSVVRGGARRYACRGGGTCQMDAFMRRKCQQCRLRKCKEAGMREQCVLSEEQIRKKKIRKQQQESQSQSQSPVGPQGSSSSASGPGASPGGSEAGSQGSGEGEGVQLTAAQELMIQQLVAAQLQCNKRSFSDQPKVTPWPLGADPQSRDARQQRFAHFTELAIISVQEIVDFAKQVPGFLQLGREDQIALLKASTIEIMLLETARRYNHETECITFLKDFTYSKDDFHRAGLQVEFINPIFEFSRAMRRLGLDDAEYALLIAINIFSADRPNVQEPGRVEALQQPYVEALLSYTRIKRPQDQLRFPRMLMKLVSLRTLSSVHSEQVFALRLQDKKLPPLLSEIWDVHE

[11] = potency of ADAM10 substrate cleavage blockers – biochemical, QFRET, dose response (AID 743254);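 note: ADAM10 enzyme with the DM2 quenched FRET peptide as substrate; EDANS fluorescence gain as the protease cuts the substrate; inhibitor potency against ADAM10 proteolytic activity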
[12] = molecular target: Disintegrin and metalloproteinase domain-containing protein 17 (Homo sapiens, UniProt P78536); test: inhibition of ADAM17 substrate cleavage – biochemical, quenched FRET substrate, counter-screen for ADAM10 exosite inhibitor project, dose response (AID 743253)
[13] = Luminescence Cell-Based Dose Response HTS to Identify Activators of Luciferase Translation or Activity in H4 […] Cells. [Related pubchem assays: 1829 (Project Summary), 1814 (Primary HTS)]; format: functional
H4 = test: Luminescence Cell-Based Dose Response HTS to Identify Activators of 5'UTR Stem-Loop Driven Prion Protein mRNA Translation in H4 Neuroglioblastoma Cells. [Related pubchem assays: 1829 (Project Summary), 1814 (Primary HTS)]; format: functional; details: Homo sapiens
[14] = Luminescence Cell-Based Dose Response to Identify Activators of Luciferase Translation or Activity in H4-C Neuroglioblastoma Cells. [Related pubchem assays: 1829 (Project Summary), 1814 (Primary HTS)]; format: functional
[15] = Luminescence Cell-Based Dose Response to Identify Activators of 5'UTR Stem-Loop Driven Prion Protein mRNA Translation in H4-C Neuroglioblastoma Cells. [Related pubchem assays: 1829 (Project Summary), 1814 (Primary HTS)]; format: functional
[16] = Luminescence Cell-Based Dose Confirmation to Identify Activators of 5'UTR Stem-Loop Driven Alpha-Synuclein mRNA Translation in H4 Neuroglioblastoma Cells. [Related pubchem assays: 1829 (Project Summary), 1814 (Primary HTS)]; format: functional
[17] = HIV-1 Vif–A3G interaction blockers – biochemical, TR-FRET, GST-Vif 1-94, biotin-A3G peptide, dose response retest, primary screen (AID 1117319); format: functional;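 note: TR-FRET signal of purified GST-Vif binding a biotinylated A3G peptide; inhibitors lower the FRET signal by blocking Vif and A3G binding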
Fatty acid synthase [18] = molecular target: T5, Fatty acid synthase (Homo sapiens, UniProt P49327); test: inhibition of human FAS-TE enzyme activity – biochemical, kinetic fluorescence intensity, dose response (AID 624326); format: functional;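 note: rate of fluorescence rise from hydrolysis of a fluorogenic O-methyl fluorescein ester substrate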
Fatty acid synthase [19] = molecular target: T5, Fatty acid synthase; test: inhibition of human FAS-TE enzyme activity – biochemical, endpoint fluorescence intensity, uHTS hits, dose response (AID 624327); format: functional;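 note: fluorescence from hydrolysis of an O-methyl fluorescein acyl ester substrate by the enzyme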
Paired box protein Pax-8 = Paired box protein Pax-8 (Homo sapiens, UniProt Q06710); test: PAX8 transcriptional activity inhibition in RMG-I – RMG-I cells, luciferase, cherry-pick, dose response (AID 687027); format: functional, cell-based;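 note: luciferase reporter driven by Pax8 target thyroperoxidase promoter measured by SteadyGlo luminescence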
[20] = OVCAR-3 cell viability loss – plate reader, dry powder samples, PAX8 inhibitor project, dose response (AID 743044); format: functional, cell-based
[21] = A2780 cell killing – plate reader, dry powder samples, cytotoxicity control, dose response (AID 743046); format: functional, cell-based
[22] = P. falciparum Dd2 growth inhibitors, dose response, SYBR Green, cherry-picked samples (AID 1159567); format: functional, cell-based
[23] = toxicity to human hepatoma HepG2 cells – cell-based, cherry-picked samples, cytotoxicity control, dose response (AID 1159577); format: functional
[24] = molecular target: RNA-editing ligase 1, mitochondrial (Trypanosoma brucei brucei, UniProt P86926); test: inhibition of trypanosome RNA editing ligase – biochemical, fluorescence, Trypanosoma brucei, dose response (AID 1117295); format: functional
[25] = SNU-C1 cell viability reduction, dose response, CellTiter-Glo luminescence (AID 1117323); format: functional, cell-based
[26] = cytotoxicity toward HT-29 cells – cell-based, CellTiter-Glo luminescence, IC50, dose response (AID 1117330); format: functional
[27] = RKO cell viability reduction, dose response, CellTiter-Glo luminescence (AID 1117322); format: functional
[28] = CellTiter-Glo luminescence survival assay, SW480 colon tumor line, concentration-response curve, half-maximal inhibitory concentration (AID 1117338); format: functional
[29] = Reduced DLD-1 viability, concentration-response, CellTiter-Glo luminescence (AID 1117352); format: functional
[30] = cytotoxicity toward Colo320 cells – cell-based, CellTiter-Glo luminescence, IC50, dose response (AID 1117334); format: functional; details: COLO 320
[31] = cytotoxicity toward HCT116 cells – cell-based, CellTiter-Glo luminescence, IC50, dose response (AID 1117332); format: functional; details: HCT-116
[32] = HCT116 cell viability decrease, GSK3B pretreatment – CellTiter-Glo, IC50, dose response (AID 1117339); format: functional; details: HCT-116

Sequence of Diphosphomevalonate decarboxylase (Q9FD53 whole entry): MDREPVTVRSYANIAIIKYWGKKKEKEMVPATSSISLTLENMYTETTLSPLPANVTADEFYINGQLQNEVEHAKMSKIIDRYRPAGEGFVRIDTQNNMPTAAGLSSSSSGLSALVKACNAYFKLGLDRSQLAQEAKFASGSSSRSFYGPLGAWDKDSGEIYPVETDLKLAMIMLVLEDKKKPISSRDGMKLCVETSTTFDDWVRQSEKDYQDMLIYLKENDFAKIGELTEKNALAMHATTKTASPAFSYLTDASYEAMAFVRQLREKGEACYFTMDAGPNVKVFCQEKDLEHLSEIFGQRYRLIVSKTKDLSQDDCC
Sequence of E3 ubiquitin-protein ligase Mdm2 (Q00987 whole entry): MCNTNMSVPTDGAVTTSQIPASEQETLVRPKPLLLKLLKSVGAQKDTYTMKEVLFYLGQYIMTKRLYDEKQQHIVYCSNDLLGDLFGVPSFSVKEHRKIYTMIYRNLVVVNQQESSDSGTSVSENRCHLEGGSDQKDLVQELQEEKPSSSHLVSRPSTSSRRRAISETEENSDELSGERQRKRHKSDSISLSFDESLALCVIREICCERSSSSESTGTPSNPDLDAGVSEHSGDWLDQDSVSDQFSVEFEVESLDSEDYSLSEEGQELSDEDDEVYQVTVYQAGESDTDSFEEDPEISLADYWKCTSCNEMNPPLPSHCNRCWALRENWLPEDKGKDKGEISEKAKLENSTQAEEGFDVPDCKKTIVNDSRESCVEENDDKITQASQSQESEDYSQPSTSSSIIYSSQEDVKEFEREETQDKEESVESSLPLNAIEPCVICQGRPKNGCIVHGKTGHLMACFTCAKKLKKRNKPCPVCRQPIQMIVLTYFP
Sequence of Disintegrin and metalloproteinase domain-containing protein 17 (P78536 whole entry, the tested form may be a part): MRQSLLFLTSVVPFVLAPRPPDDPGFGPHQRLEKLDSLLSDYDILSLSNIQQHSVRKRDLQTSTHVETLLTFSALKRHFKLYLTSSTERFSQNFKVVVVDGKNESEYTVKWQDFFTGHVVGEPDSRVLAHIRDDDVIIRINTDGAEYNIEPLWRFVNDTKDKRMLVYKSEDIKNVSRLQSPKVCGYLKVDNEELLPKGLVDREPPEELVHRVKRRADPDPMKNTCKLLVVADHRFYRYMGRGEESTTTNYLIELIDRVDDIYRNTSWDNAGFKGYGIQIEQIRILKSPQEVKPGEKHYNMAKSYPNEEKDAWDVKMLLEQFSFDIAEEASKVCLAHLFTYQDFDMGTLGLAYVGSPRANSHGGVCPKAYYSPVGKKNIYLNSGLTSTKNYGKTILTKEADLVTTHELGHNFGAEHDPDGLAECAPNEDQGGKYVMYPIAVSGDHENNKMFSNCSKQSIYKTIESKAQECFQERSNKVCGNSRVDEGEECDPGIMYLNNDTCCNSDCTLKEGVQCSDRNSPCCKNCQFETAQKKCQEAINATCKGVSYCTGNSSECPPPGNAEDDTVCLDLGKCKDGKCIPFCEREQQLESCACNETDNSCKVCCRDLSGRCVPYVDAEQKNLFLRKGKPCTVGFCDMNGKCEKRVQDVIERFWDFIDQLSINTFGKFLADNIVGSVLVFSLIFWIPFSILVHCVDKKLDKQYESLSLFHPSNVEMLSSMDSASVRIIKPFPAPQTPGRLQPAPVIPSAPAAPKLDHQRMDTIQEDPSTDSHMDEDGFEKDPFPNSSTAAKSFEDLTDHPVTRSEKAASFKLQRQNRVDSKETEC
T5 sequence (P49327 whole entry): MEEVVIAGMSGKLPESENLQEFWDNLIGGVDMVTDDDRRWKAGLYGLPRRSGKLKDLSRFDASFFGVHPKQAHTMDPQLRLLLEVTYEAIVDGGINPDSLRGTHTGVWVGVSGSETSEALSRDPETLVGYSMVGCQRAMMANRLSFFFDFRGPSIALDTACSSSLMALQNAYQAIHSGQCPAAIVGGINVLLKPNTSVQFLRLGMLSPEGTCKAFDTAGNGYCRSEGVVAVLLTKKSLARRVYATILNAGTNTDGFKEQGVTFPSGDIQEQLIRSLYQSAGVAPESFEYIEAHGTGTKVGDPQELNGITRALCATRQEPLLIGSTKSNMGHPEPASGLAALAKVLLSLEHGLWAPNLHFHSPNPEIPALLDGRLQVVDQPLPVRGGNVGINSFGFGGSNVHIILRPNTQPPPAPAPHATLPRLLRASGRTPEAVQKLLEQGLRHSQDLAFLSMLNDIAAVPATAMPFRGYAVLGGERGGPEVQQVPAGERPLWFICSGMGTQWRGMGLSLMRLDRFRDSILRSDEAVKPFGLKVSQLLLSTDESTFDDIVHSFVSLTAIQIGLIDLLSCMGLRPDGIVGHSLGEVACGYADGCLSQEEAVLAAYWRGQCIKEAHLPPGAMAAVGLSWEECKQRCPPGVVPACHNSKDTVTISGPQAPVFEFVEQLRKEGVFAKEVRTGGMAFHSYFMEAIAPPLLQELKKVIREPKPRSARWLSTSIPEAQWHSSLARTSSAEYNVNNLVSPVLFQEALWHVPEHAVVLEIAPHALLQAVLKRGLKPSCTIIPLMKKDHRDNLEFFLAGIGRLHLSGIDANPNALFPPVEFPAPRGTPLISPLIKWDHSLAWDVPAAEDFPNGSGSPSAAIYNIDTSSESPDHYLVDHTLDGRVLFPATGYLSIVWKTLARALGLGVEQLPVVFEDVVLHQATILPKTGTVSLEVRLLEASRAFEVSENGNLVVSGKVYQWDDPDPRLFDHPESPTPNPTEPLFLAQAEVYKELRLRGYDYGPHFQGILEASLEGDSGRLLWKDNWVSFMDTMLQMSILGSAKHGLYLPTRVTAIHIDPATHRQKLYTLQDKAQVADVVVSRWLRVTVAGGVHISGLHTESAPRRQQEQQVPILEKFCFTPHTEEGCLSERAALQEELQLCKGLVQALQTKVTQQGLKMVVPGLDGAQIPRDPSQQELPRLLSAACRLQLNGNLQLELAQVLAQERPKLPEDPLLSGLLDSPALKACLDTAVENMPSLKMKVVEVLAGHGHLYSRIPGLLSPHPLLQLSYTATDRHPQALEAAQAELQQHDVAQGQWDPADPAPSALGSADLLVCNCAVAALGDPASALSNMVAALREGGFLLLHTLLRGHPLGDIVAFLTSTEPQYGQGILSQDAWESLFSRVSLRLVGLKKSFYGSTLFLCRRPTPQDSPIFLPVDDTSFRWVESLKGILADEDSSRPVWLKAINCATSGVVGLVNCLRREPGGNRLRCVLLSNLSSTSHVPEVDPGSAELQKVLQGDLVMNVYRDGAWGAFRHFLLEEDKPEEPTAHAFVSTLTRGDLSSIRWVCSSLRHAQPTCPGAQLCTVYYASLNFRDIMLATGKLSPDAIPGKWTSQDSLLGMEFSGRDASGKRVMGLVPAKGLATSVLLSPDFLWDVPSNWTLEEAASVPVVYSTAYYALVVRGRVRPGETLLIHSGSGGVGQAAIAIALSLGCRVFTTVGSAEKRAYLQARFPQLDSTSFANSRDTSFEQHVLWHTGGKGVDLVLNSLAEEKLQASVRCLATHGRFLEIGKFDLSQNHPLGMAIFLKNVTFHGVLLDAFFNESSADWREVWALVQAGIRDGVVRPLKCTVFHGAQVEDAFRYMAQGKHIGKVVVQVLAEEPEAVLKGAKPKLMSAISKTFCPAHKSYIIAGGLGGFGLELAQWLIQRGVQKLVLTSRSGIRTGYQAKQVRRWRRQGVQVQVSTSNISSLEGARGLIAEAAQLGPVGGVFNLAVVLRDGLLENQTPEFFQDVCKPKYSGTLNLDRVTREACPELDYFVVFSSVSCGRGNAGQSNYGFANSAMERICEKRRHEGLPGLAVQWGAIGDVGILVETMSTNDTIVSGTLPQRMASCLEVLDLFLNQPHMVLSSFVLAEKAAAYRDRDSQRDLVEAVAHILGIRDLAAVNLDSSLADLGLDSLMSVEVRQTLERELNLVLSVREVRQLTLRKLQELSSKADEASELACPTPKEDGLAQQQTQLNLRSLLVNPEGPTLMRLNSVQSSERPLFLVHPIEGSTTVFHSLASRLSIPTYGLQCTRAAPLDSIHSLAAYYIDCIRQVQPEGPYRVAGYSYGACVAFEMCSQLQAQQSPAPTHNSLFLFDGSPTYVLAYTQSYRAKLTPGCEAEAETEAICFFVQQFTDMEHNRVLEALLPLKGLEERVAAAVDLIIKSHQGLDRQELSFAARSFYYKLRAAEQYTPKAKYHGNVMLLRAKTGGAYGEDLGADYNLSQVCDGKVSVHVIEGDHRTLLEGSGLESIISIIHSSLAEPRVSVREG
Sequence of NAD-dependent protein deacylase sirtuin-5, mitochondrial (Q9NXA8 whole entry, the tested form may be a part): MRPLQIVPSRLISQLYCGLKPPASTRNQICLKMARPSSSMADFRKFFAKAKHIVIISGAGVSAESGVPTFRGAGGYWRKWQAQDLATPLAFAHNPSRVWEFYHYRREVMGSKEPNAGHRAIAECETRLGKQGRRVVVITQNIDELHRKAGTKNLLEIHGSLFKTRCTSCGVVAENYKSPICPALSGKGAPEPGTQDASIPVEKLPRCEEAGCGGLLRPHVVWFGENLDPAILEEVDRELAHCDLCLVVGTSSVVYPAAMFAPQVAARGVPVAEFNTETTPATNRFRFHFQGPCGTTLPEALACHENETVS
Sequence of Paired box protein Pax-8 (Q06710 whole entry): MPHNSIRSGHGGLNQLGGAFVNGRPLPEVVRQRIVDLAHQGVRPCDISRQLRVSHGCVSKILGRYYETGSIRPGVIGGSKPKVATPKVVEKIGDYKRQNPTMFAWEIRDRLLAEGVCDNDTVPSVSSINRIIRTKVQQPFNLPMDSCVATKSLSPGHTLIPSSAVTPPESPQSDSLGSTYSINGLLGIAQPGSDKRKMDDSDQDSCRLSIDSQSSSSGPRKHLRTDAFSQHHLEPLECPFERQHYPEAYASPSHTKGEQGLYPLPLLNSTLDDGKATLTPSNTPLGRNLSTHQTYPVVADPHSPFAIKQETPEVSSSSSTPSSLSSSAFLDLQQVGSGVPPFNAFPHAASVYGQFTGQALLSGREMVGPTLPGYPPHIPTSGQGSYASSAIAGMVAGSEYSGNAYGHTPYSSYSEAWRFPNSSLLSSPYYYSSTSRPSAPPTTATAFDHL

## CCCn1c(SCC(=O)c2cc(OC)ccc2OC)nnc1-c1ccco1
[1]
  IC50: > 109 µM (inactive)
[2]
  IC50: > 83.3 µM (inactive)

## CCSc1nnc(NC(=O)CSc2sc3c(O)cc(=O)[nH]c3c2C#N)s1
[3]
  AC50: > 30 µM (inactive)
[4]
  IC50: 3.21 µM (active)
[5]
  IC50: 49.5 µM (inactive)

## O=C(NC1CC1)c1cccc(-n2sc3ccccc3c2=O)c1
[6]
  IC50: 20.4 µM (active)

## On1c2c(c3c4nonc4ccc31)CCCC2
[7]
  IC50: > 50 µM (not active)

## Cc1cc(OC(=O)c2ccccc2)c([N+](=O)[O-])c(O)n1
[8]
  EC50: 0.01 µM (not active)

## CCN(c1ccc(C)c(C)c1)S(=O)(=O)c1ccc2c(c1)CCN2C(=O)CCC(=O)O
[1]
  IC50: > 109 µM (inactive)
[2]
  IC50: > 83.3 µM (inactive)

## Cc1ccccc1NC(=O)c1cc(C(=O)c2cc(Cl)ccc2O)cn(-c2ccccc2C)c1=O
Vero
  CC50: 64.8 µM (active)

## Cc1ccc(-c2cn3cccc(C)c3n2)cc1
[9]
  IC50: > 67.5 µM (inactive)
[10]
  EC50: > 67.5 µM (inactive)

## Cc1ccc(C(=O)Nc2ccccc2C(=O)NCc2ccco2)cc1S(=O)(=O)N1CCCCC1
[11]
  IC50: > 69.5 µM (inactive)
[12]
  IC50: > 69.5 µM (inactive)

## Cc1nn(-c2nc3ccccc3s2)c(N)c1-c1ccccc1
[13]
  EC50: < 0.1 µM (active)
H4
  EC50: > 120 µM (not active)
[14]
  EC50: 1.66 µM (active)
[15]
  EC50: 0.346 µM (active)
[16]
  EC50: 0.277 µM (active)

## CC(=O)Cc1nsc(Nc2ccc3c(c2)OCCO3)n1
[17]
  IC50: > 100 µM (active)

## O=C(NCCN1CCCC(O)C1)c1cc(COc2ccc(F)cc2Cl)on1 (stereo not given)
[3]
  AC50: > 30 µM (inactive)

## CN1CCN(C(=O)c2ccc(-n3sc4ccccc4c3=O)cc2)CC1
[6]
  IC50: 25.8 µM (active)

## COc1ccccc1-c1cc(SC)c(C#N)c(=O)o1
Fatty acid synthase [18]
  IC50: 10.9 µM (active)
Fatty acid synthase [19]
  IC50: 15.3 µM (active)
[8]
  EC50: 11.1 µM (active)

## CNc1cncc(-c2ccc(OC)c(OC)c2)n1
[9]
  IC50: > 67.6 µM (inactive)
[10]
  EC50: > 67.6 µM (inactive)

## Cc1ccc(S(=O)(=O)Nc2ccc3c(c2)C(=O)N([C@H](C)CO)C[C@@H](C)[C@@H](CN(C)Cc2ccc4c(c2)OCO4)OCCCC[C@@H](C)O3)cc1
Paired box protein Pax-8
  AC50: 21 µM (active)
[20]
  AC50: 29.1 µM (active)
[21]
  AC50: < 0.26 µM (active)

## O=C(CSc1nnc(Cc2cccs2)n1-c1ccc(Cl)cc1)Nc1ccc(OCc2ccccc2)cc1
[11]
  IC50: > 69.5 µM (inactive)
[12]
  IC50: > 69.5 µM (inactive)

## CCN(CC)CCN/C=C1\C(=O)CNC1=O
[17]
  IC50: > 100 µM (active)

## COc1ccc(C#Cc2ccc([C@@H]3[C@H](CO)N4CCCCN(C(=O)Cc5ccccc5)C[C@@H]34)cc2)cc1
[22]
  AC50: 1.42 µM (active)
[23]
  AC50: 7.73 µM (active)

## COCCCNC(=O)C1CCN(S(=O)(=O)c2ccc3[nH]c(=O)oc3c2)CC1
[24]
  IC50: 42.4 µM (inactive)

## CC(C)=CCCC(C)=CCCC(C)=CCCC=C(C)CCC=C(C)CCC=C(C)C
[25]
  IC50: > 20 µM (inactive)
[26]
  IC50: > 20 µM (inactive)
[27]
  IC50: > 20 µM (inactive)
[28]
  IC50: > 20 µM (inactive)
[29]
  IC50: > 20 µM (inactive)
[30]
  IC50: > 20 µM (inactive)
[31]
  IC50: > 20 µM (inactive)
[32]
  IC50: > 20 µM (inactive)
